Source: patent publication US8389549B2, “Substituted pyridines useful for treating pain” (Purdue Pharma L.P., priority 2007, dated 2013)
≈ marks a conversion by molar mass, not a printed value. Like-named read-outs stand apart in the source and are kept apart here.

Tests used:
[1] = Solubility of diol compounds in aqueous solution; assay type: physicochemical
[2] = target: T1, human TRPV1 (Homo sapiens, UniProt Q8NER1); experiment: Capsaicin-based assay (Fluo-4 calcium fluorescence, TRPV1/CHO cells); assay type: cell-based; parameters: expressed in transfected cells
T1 sequence (Q8NER1 whole entry): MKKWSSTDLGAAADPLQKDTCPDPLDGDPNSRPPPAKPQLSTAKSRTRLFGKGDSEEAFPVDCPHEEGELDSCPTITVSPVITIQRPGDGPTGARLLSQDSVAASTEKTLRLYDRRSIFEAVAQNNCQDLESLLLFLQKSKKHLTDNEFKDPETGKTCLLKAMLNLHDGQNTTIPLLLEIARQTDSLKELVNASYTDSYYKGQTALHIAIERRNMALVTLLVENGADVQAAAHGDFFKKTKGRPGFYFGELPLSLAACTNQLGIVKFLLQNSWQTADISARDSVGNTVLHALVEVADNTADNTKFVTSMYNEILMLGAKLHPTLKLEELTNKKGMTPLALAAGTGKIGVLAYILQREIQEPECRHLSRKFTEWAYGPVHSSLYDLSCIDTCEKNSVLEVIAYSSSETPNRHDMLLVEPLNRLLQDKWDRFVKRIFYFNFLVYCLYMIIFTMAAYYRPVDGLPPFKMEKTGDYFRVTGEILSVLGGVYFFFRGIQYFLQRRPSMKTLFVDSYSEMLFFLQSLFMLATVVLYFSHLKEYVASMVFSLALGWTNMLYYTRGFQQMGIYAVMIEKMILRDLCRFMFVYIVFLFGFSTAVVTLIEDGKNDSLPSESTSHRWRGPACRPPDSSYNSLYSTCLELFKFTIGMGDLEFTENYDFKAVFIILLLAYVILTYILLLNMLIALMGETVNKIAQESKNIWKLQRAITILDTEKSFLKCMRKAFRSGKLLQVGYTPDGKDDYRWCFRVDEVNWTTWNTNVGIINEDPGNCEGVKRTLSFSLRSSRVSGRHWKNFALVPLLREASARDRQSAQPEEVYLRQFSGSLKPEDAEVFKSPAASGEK
Protocol: One day prior to assay, TRPV1/CHO cells are seeded in 96-well clear-bottom black plates (20,000 cells/well) in growth media. On the day of the experiment, the cells are washed with 0.2 ml 1× Hank's Balanced Salt Solution (Life Technologies) containing 1.6 mM CaCl2 and 20 mM HEPES, pH 7.4 (“wash buffer”). Subsequently, the cells are loaded by incubation in 0.1 ml of wash buffer containing Fluo-4 at 3 µM final concentration. After 1 hour, the cells are washed twice with 0.2 ml wash buffer and resuspended in 0.1 ml wash buffer. The plates are then transferred to a Fluorescence Imaging Plate Reader (Molecular Devices). Fluorescence intensity is monitored for 15 seconds to establish a baseline. Subsequently, test compounds diluted in assay buffer (1× Hank's Balanced Salt Solution containing 1 mM CaCl2 and 20 mM HEPES, pH 7.4) containing 1% DMSO are added to the cell plate and fluorescence is monitored for 2 minutes. […] Human TRPV1 is then activated by the addition of 50 μL capsaicin (100 nM final concentration) and plates incubated for an additional 3 min. Data are collected over the entire time course and analyzed using Excel and the curve-fitting Formula GraphPad Prism.

[3] = target: T1, human TRPV1; experiment: pH-based assay (Fura-2 AM Ca2+ response to low pH, TRPV1/CHO cells)
Protocol: For this Protocol, a Chinese Hamster Ovary cell line (CHO) that constitutively expresses human TRPV1 is used (TRPV1/CHO cells).
TRPV1/CHO cells are seeded in the 96-well clear-bottom black-wall plate (Nunc) at densities of 1-2×10^4 cells/well and grown in 100 μL of culture medium (alpha-MEM supplemented with 10% FBS, 20 mM HEPES, 1 mg/mL geneticin and 1% antibiotic-antimycotic mixed stock solution) for 1-2 days before the experiment.
(2) The 96-well plate is incubated at 37° C. for 45 min.
(3) The loading buffer is removed from each well. […] The wells are then refilled with 80 μL of measuring buffer.
(4) After an incubation at 4° C. for 15 min, the 96-well plate is transferred to FDSS-3000 (Hamamatsu photonics, Japan).
(5) The Fura-2 fluorescent intensity is monitored at a wavelength of 340 nm and at 380 nm, respectively, at a rate of 0.5 Hz for a total of 240 seconds. After 16 time points (32 sec) of baseline detection, 20 μL of agonist solution is added to each well. […]
(6) Fluorescence intensity ratio refers to the fluorescence intensity at 340 nm over the fluorescence intensity at 380 nm at a particular time point. […]
(7) Maximal signal ratios from each well are calculated as output data using the FDSS-3000 analysis program. Data are analyzed using Excel (Microsoft) and XLfit (idbs) software. […]
(6) Fura-2 fluorescent intensity is monitored as described in 2.2.(5) of this Protocol. […]

[4] = pH 1.2, read-out: Solubility (μM) pH: 1.2
[5] = pH 6.8, aqueous buffer, read-out: Solubility (μM) pH: 6.8
[6] = TRPV1/CHO cells, capsaicin 100 nM final concentration, read-out: Potency, IC50(nM) Capsaicin assay

Compound	solubility [1, 4]	solubility [1, 5]	IC50 [2]	IC50 [3]	IC50 [2, 6]
O=C(Nc1ccc(C(F)(F)F)cn1)C1=CCN(c2ncc([C@H](O)CO)cc2F)CC1 [Compound E2]	> 50 µM	25 µM (≈ 10.7 µg/mL)			45.9 ± 4.2 nM
O=C(Nc1nc2ccc(F)cc2s1)C1=CCN(c2ncc([C@H](O)CO)cc2F)CC1 [Compound I5, (S)-1-(5-(1,2-dihydroxyethyl)-3-fluoropyridin-2-yl)-N-(6-fluorobenzo[d]thiazol-2-yl)-1,2,3,6-tetrahydropyridine-4-carboxamide]	46 µM (≈ 19.9 µg/mL)	1 µM (≈ 0.432 µg/mL)			35.6 ± 5.1 nM

The remaining lines, values ahead:

solubility [1, 4]	solubility [1, 5]	IC50 [2]	IC50 [3]	IC50 [2, 6]	Compound
> 50 µM	19 µM (≈ 8.08 µg/mL)	23.8 ± 6.2 nM	0.0095 ± 0.0025 µM		O=C(Nc1ccc(C(F)(F)F)cc1)C1=CCN(c2ncc([C@H](O)CO)cc2F)CC1 [Compound A14]
		29.4 ± 6.3 nM	0.0147 ± 0.00101 µM		O=C(Nc1ccc(C(F)(F)F)cc1)C1=CCN(c2ncc([C@@H](O)CO)cc2F)CC1 [Compound B14]
> 50 µM	21 µM (≈ 8.95 µg/mL)			109 ± 25.5 nM	O=C(Nc1ccc(C(F)(F)F)cn1)C1=CCN(c2ncc([C@@H](O)CO)cc2F)CC1 [Compound F2]
